Laboratory results as given in ChEMBL document CHEMBL5104105, “Identification of the first structurally validated covalent ligands of the small GTPase RAB27A” (RSC Med Chem, 2022).
Calls of active or inactive are those of the source. No cut-off for these calls is given here.

Legend:
Homo sapiens [1] = species: Homo sapiens; assay: Covalent binding affinity to Spl2/Rab27A C123 mutant fusion protein (unknown origin) assessed as half-life of adduct formation by measuring protein mass shift after 8 hrs by intact-protein mass spectrometry
Homo sapiens [2] = species: Homo sapiens; assay: Covalent binding affinity to Spl2/Rab27A C188 mutant fusion protein (unknown origin) assessed as half-life of adduct formation by measuring protein mass shift after 24 hrs by intact-protein mass spectrometry

C=CC(=O)Nc1nc2ccccc2n1CCc1ccccn1
Activity (Homo sapiens [1]): Active
Activity (Homo sapiens [2]): Active

C=CC(=O)N1CCC[C@H]1c1ccc(OC)cc1
Activity (Homo sapiens [2]): Active
